ChEMBL document CHEMBL1149521, “Synthesis of novel keto-ACE analogues as domain-selective angiotensin I-converting enzyme inhibitors” (Bioorg Med Chem Lett, 2006)

Legend:
[1] = Selectivity for rabbit testis ACE C domain over human ACE N domain
[2] = molecular target: T1, Angiotensin-converting enzyme (Oryctolagus cuniculus, UniProt P12822); experiment: Inhibition of rabbit testis recombinant ACE C domain
T1 sequence (P12822 whole entry): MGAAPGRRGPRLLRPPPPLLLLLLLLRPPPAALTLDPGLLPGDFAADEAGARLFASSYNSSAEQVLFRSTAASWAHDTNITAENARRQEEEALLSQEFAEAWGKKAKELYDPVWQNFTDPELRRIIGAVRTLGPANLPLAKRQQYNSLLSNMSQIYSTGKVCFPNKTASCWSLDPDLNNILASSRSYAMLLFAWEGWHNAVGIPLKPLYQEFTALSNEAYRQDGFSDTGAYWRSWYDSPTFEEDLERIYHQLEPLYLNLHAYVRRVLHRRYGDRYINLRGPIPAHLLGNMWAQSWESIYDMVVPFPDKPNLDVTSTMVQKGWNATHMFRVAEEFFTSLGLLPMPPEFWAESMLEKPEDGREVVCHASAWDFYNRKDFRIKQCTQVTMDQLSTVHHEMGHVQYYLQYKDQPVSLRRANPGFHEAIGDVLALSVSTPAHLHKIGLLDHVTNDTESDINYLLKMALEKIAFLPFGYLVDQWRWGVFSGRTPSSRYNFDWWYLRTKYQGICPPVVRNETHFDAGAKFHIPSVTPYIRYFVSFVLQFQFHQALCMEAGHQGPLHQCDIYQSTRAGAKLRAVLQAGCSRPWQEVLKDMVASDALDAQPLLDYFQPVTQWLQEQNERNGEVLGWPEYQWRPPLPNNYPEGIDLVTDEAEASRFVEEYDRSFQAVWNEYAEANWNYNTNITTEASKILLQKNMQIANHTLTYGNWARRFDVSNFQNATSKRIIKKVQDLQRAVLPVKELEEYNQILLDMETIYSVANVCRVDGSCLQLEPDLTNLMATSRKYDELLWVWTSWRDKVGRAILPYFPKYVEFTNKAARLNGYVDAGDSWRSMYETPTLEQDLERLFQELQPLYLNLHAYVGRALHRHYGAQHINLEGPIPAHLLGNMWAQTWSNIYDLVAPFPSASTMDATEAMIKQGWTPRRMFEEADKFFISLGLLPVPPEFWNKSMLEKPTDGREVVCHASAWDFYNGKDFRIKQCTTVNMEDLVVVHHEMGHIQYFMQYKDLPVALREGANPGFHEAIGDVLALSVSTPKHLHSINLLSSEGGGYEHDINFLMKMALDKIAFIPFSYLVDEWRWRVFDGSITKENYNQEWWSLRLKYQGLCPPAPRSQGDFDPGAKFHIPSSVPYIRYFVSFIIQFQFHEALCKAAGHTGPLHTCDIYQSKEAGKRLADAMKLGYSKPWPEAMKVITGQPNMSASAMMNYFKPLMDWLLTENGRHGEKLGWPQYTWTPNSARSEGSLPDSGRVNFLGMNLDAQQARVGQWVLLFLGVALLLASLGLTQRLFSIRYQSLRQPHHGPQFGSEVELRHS

[3] = molecular target: Angiotensin-converting enzyme (Homo sapiens, UniProt P12821); experiment: Inhibition of recombinant ACE N domain
Chain of Angiotensin-converting enzyme (Homo sapiens, UniProt P12821) (P12821 whole entry): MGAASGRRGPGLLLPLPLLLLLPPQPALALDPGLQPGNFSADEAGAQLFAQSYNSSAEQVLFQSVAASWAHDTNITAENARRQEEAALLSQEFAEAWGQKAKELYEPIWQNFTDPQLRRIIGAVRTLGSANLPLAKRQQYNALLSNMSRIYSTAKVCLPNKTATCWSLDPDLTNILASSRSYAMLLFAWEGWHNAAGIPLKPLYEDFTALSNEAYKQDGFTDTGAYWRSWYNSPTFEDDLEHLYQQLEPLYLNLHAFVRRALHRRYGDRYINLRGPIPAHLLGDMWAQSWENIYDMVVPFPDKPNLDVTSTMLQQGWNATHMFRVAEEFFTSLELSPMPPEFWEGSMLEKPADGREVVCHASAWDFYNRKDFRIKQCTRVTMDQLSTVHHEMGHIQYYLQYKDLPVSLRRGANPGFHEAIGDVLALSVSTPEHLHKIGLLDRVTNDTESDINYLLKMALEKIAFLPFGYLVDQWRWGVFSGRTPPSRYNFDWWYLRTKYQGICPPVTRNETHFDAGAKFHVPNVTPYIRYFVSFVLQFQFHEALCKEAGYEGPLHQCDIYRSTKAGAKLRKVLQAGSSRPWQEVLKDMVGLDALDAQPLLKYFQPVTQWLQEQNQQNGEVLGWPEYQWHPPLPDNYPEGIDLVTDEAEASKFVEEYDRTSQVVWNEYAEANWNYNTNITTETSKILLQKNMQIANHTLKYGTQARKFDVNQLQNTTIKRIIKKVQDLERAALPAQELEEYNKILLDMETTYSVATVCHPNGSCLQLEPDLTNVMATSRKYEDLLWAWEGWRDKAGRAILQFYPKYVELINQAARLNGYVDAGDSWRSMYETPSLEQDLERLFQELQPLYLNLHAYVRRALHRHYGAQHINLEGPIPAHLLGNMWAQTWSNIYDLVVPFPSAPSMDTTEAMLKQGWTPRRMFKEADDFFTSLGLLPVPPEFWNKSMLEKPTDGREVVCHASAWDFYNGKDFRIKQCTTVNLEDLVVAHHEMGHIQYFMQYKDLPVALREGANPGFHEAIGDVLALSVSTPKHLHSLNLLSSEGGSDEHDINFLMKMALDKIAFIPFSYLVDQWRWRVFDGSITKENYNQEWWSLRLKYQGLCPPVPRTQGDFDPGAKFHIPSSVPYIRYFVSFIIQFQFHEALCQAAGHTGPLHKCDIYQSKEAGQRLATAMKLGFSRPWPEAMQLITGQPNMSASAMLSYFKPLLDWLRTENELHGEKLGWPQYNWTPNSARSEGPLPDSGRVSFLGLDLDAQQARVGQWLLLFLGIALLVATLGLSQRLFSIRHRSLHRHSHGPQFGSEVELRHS

O=C(CCC(=O)[C@H](Cc1ccccc1)NC(=O)c1ccccc1)N[C@@H](Cc1ccccc1)C(=O)O
Ratio Ki [1]: 3.6
Ki [2]: 23.7 µM

CC(C)(C)OC(=O)N[C@@H](Cc1ccccc1)C(=O)CCC(=O)N[C@@H](Cc1ccccc1)C(=O)O
Ratio Ki [1]: 0.1
Ki [2]: 313 µM
Ki [3]: 43 µM

CC(C)(C)OC(=O)N[C@@H](Cc1ccccc1)C(=O)CCC(=O)N1CCC[C@H]1C(=O)O
Ratio Ki [1]: 0.2
Ki [2]: 144 µM

NCCCC[C@H](N[C@@H](CCc1ccccc1)C(=O)O)C(=O)N1CCC[C@H]1C(=O)O [LISINOPRIL ANHYDROUS]
Ki [2]: 0.051 µM

O=C(CCC(=O)[C@H](Cc1ccccc1)NC(=O)c1ccccc1)N[C@@H](Cc1c[nH]c2ccccc12)C(=O)O
Ratio Ki [1]: 245
Ki [2]: 0.8 µM

CC(C)(C)OC(=O)N[C@@H](Cc1ccccc1)C(=O)CCC(=O)N[C@@H](Cc1c[nH]c2ccccc12)C(=O)O
Ratio Ki [1]: 0.04
Ki [2]: 381 µM
Ki [3]: 13.3 µM
